pIC50: −log10 of the molar value.
Target: T1, Dual specificity protein phosphatase 26 (Homo sapiens, UniProt Q9BV47)
T1 sequence (Q9BV47 whole entry): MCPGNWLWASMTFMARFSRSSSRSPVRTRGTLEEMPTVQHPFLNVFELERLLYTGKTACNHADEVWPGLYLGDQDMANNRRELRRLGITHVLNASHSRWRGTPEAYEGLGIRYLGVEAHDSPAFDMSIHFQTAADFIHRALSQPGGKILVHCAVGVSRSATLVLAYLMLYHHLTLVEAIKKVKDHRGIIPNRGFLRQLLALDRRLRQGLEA
Assay: inhibition of Homo sapiens (human) recombinant DUSP26 catalytic domain (61 to 211 amino acid residues) overexpressed in Escherichia coli BL21 (DE3) assessed as hydrolysis of 3-ortho-methylfluorescein phosphate after 30 min by spectrofluorometric analysis

| pIC50 | SMILES |
| --- | --- |
| 4.77 | O=C(O)c1ccc(Cl)cc1Nc1nc2ccccc2nc1NS(=O)(=O)c1ccc(Cl)cc1 |
| 4.58 | O=C(CN1C(=O)/C(=C\C=C\c2ccccc2)SC1=S)Nc1ccc(O)cc1C(=O)O |
| 4.65 | O=C(O)CCN1C(=O)/C(=C/c2cn(-c3ccccc3)nc2-c2cccc([N+](=O)[O-])c2)SC1=S |
| 4.52 | C=CCOc1ccc(/C=C2\SC(=S)N(c3cccc(C(=O)O)c3)C2=O)cc1 |
| < 4.00 | O=C1OC(c2ccc(Cl)cc2)=C/C1=C\c1ccc(-c2cccc(C(=O)O)c2)o1 |
| 4.70 | CN1C(=O)/C(=C/c2ccc(OCc3cccc([N+](=O)[O-])c3)cc2)S/C1=N/c1cccc(C(=O)O)c1 |
| 4.60 | O=C(O)c1cccc(N2C(=O)/C(=C\c3ccc(O)c(O)c3)SC2=S)c1 |
| < 4.00 | Cc1ccc(C2=C/C(=C\c3ccc(-c4cccc(C(=O)O)c4)o3)C(=O)O2)cc1 |
| 5.05 | O=C1OC(c2ccc(Cl)cc2)=C/C1=C\c1ccc(-c2ccc(Cl)c(C(=O)O)c2)o1 |
| 4.57 | CN1C(=O)/C(=C/c2ccc(OCc3ccc(F)cc3)cc2)S/C1=N/c1cccc(C(=O)O)c1 |
| 4.44 | CCc1cc(CC)cc(OCCOc2ccccc2/C=C2/C(=O)NN(c3ccccc3)C2=O)c1 |
| 4.38 | CCN1C(=O)/C(=C/c2ccccc2OCc2ccccc2C#N)S/C1=N/c1ccc(C(=O)O)cc1 |
| 4.90 | CN1C(=O)/C(=C/c2ccc(OCc3cccc(F)c3)cc2)S/C1=N/c1cccc(C(=O)O)c1 |

Target: T1, Dual specificity protein phosphatase 26
Assay: Inhibition of DUSP26 (unknown origin)-mediated p38 dephosphorylation

| pIC50 | SMILES |
| --- | --- |
| 4.78 | O=S(=O)(O)c1ccc2cc(/N=N/c3cc(S(=O)(=O)O)c4cccnc4c3O)ccc2c1 |

— ChEMBL document CHEMBL3045606, “Virtual screening and biochemical evaluation of the inhibitors of dual-specificity phosphatase 26” (Med Chem Res, 2013)
